The target in one test is human CSNK1A1 (Homo sapiens (Human), UniProt P48729). Briefly: CSNK1A1 Assay 2 (ADP-Glo, 1 μM ATP). The format is biochemical. The conditions noted are these: median, Table 2, read-out: CSNK1A1 Assay 2 IC50 [mol/l] (median). A digest of the protocol: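 GST-tagged full-length human CSNK1A1 from insect cells, preincubated 15 min with compound, then reacted 30 min at 22° C with 1 μM ATP and 30 μM biotinylated peptide substrate in pH 7.5 HEPES buffer. ADP measured by ADP-Glo luminescence; normalised to no-inhibitor (0%) and no-enzyme (100%) controls.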
(ADP-Glo turns the ADP formed in a reaction into a luminescent signal.)

The target of another test is human CSNK1D (Homo sapiens (Human), UniProt P48730). Briefly: CSNK1D assay (ADP-Glo, 1 μM ATP). Conditions: median, Table 2, read-out: CSNK1D IC50 [mol/l] (median). The class given is biochemical. A digest of the protocol: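 GST-tagged full-length human CSNK1D (baculovirus/insect cell; typically about 0.5 ng/μL) preincubated with compound 15 min, then reacted 30 min at 22 °C with 1 μM ATP and 30 μM biotinylated peptide (final) in HEPES pH 7.5 buffer. ADP quantified by ADP-Glo luminescence; data normalised to no-inhibitor and no-enzyme controls.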

SMILES strings stand for the structures.

Chain of human CSNK1D (P48730 whole entry): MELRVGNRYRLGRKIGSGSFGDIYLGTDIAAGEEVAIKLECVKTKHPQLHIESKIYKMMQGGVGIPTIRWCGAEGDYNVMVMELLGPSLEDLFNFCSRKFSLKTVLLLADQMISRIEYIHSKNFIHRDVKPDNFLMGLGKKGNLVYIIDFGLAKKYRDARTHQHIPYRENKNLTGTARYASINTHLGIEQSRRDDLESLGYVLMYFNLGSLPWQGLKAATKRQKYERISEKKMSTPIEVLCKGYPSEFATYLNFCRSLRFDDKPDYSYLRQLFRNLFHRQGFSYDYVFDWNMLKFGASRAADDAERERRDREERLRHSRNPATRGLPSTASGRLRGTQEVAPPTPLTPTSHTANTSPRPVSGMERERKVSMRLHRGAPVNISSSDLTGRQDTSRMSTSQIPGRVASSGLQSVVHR
Chain of human CSNK1A1 (P48729 whole entry): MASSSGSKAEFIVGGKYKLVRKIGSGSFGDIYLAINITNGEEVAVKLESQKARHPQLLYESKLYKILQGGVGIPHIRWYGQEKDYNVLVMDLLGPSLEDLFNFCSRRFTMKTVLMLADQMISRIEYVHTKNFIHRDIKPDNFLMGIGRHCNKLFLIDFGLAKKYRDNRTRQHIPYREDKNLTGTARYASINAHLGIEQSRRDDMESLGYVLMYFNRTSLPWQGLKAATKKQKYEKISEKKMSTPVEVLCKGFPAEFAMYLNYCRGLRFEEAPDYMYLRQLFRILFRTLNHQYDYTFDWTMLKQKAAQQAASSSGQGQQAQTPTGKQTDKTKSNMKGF

On to `CCC1CNC(=O)c2c1[nH]c(-c1ccnc(NC(=O)Cc3ccc(F)cc3)c1)c2Nc1ccccc1` (single isomer, unassigned) [Example 2, N-{4-[3-anilino-7-ethyl-4-oxo-4,5,6,7-tetrahydro-1H-pyrrolo[3,2-c]pyridin-2-yl]pyridin-2-yl}-2-(4-fluorophenyl)acetamide], for which the figures for the IC50 on human CSNK1A1 and at human CSNK1D were 0.0033 µM and 0.0052 µM, respectively.
As to `CN1CC(CC2CC2)c2[nH]c(-c3ccnc(NC(=O)Cc4ccc(F)cc4)c3)c(Nc3cscn3)c2C1=O` (racemic) [Example 49, N-{4-[(7RS)-7-(cyclopropylmethyl)-5-methyl-4-oxo-3-(1,3-thiazol-4-ylamino)-4,5,6,7-tetrahydro-1H-pyrrolo[3,2-c]pyridin-2-yl]pyridin-2-yl}-2-(4-fluorophenyl)acetamide], the IC50 on human CSNK1A1 stood at 0.0059 µM; on human CSNK1D, 0.014 µM.
Consider `Cc1cn(C)c(=O)c2c(Nc3ccccc3)c(-c3ccnc(NC(=O)C(C)c4ccc(F)cc4)c3)[nH]c12` (single isomer, unassigned) [Example 40, N-[4-(3-anilino-5,7-dimethyl-4-oxo-4,5-dihydro-1H-pyrrolo[3,2-c]pyridin-2-yl)pyridin-2-yl]-2-(4-fluorophenyl)propanamide], for which the IC50 was 0.015 µM at human CSNK1A1 and 0.019 µM at human CSNK1D.
Take `Cn1ccc2[nH]c(-c3ccnc(NC(=O)C(CC(F)F)c4ccc(F)cc4)c3)c(Nc3ccccc3)c2c1=O` (single isomer, unassigned) [Example 29, N-[4-(3-anilino-5-methyl-4-oxo-4,5-dihydro-1H-pyrrolo[3,2-c]pyridin-2-yl)pyridin-2-yl]-4,4-difluoro-2-(4-fluorophenyl)butanamide]: the IC50 at human CSNK1A1 stood at 0.05 µM; at human CSNK1D, 0.053 µM.
For `CCC1CNC(=O)c2c1[nH]c(-c1ccnc(NC(=O)Cc3ccc(F)cc3)c1)c2Nc1ccccc1` (single isomer, unassigned) [Example 3, N-{4-[3-anilino-7-ethyl-4-oxo-4,5,6,7-tetrahydro-1H-pyrrolo[3,2-c]pyridin-2-yl]pyridin-2-yl}-2-(4-fluorophenyl)acetamide], in that order: 0.0038 µM and 0.01 µM.
Take `CN1CC(CC(F)(F)F)c2[nH]c(-c3ccnc(NC(=O)C(CC(F)F)c4ccc(F)cc4)c3)c(Nc3cscn3)c2C1=O` (single isomer, unassigned) [Example 56, (2R or S)-4,4-difluoro-2-(4-fluorophenyl)-N-{4-[(7R or S)-5-methyl-4-oxo-3-[(1,3-thiazol-4-yl)amino]-7-(2,2,2-trifluoroethyl)-4,5,6,7-tetrahydro-1H-pyrrolo[3,2-c]pyridin-2-yl]pyridin-2-yl}butanamide]: the figures for the IC50 on human CSNK1A1 and on human CSNK1D were 0.0077 µM and 0.013 µM, respectively.
On to `CN1CC(CC2CC2)c2[nH]c(-c3ccnc(NC(=O)Cc4ccc(F)cc4)c3)c(Nc3ccccc3)c2C1=O` (single isomer, unassigned) [Example 19, N-{4-[3-anilino-7-(cyclopropylmethyl)-5-methyl-4-oxo-4,5,6,7-tetrahydro-1H-pyrrolo[3,2-c]pyridin-2-yl]pyridin-2-yl}-2-(4-fluorophenyl)acetamide], for which the IC50 on human CSNK1A1 came to 0.0039 µM; on human CSNK1D it was 0.0065 µM.
For the compound `CC1CN(C)C(=O)c2c1[nH]c(-c1ccnc(NC(=O)Cc3ccc(F)cc3)c1)c2Nc1ccccc1` (single isomer, unassigned; (+)) [Example 8, (+)-N-{4-[3-anilino-5,7-dimethyl-4-oxo-4,5,6,7-tetrahydro-1H-pyrrolo[3,2-c]pyridin-2-yl]pyridin-2-yl}-2-(4-fluorophenyl)acetamide], the IC50 on human CSNK1A1 was determined as 0.012 µM; at human CSNK1D, 0.026 µM.
Regarding `O=C1N[C@@H]2CCC[C@@H]2c2[nH]c(-c3ccnc(NC(=O)C(CC(F)F)c4ccc(F)cc4)c3)c(Nc3ccccc3)c21` (single isomer, unassigned; (+)) [Example 22, (+)-(2R or S)—N-{4-[cis-3-anilino-4-oxo-1,4,5,5a,6,7,8,8a-octahydrocyclopenta[b]pyrrolo[2,3-d]pyridin-2-yl]pyridin-2-yl}-4,4-difluoro-2-(4-fluorophenyl)butanamide], the IC50 worked out at 0.0054 µM at human CSNK1A1 and 0.0063 µM on human CSNK1D.
For `CC1CN(C)C(=O)c2c1[nH]c(-c1ccnc(NC(=O)Cc3ccc(F)cc3)c1)c2Nc1ccccc1` (racemic) [Example 6, N-{4-[3-anilino-5,7-dimethyl-4-oxo-4,5,6,7-tetrahydro-1H-pyrrolo[3,2-c]pyridin-2-yl]pyridin-2-yl}-2-(4-fluorophenyl)acetamide], the IC50 at human CSNK1A1 came to 0.0026 µM; at human CSNK1D, 0.0065 µM.
Turning to `O=C1N[C@@H]2CCC[C@@H]2c2[nH]c(-c3ccnc(NC(=O)C(CC(F)F)c4ccc(F)cc4)c3)c(Nc3ccccc3)c21` (single isomer, unassigned; (+)) [Example 25, (+)-(2R or S)—N-{4-[cis-3-anilino-4-oxo-1,4,5,5a,6,7,8,8a-octahydrocyclopenta[b]pyrrolo[2,3-d]pyridin-2-yl]pyridin-2-yl}-4,4-difluoro-2-(4-fluorophenyl)butanamide], the IC50 at human CSNK1A1 is 0.0023 µM; at human CSNK1D, 0.0031 µM.
For the compound `C[C@@H](C(=O)Nc1cc(-c2[nH]c3ccn(C)c(=O)c3c2Nc2ccccc2)ccn1)c1ccc(F)cc1` (single isomer, unassigned) [Example 27], the figures for the IC50 at human CSNK1A1 and at human CSNK1D were 0.021 µM and 0.028 µM, respectively.
Regarding `CN1CC(CC(F)(F)F)c2[nH]c(-c3ccnc(NC(=O)C(CC(F)F)c4ccc(F)cc4)c3)c(Nc3cscn3)c2C1=O` (single isomer, unassigned) [Example 53, (2R or S)-4,4-difluoro-2-(4-fluorophenyl)-N-{4-[(7R or S)-5-methyl-4-oxo-3-[(1,3-thiazol-4-yl)amino]-7-(2,2,2-trifluoroethyl)-4,5,6,7-tetrahydro-1H-pyrrolo[3,2-c]pyridin-2-yl]pyridin-2-yl}butanamide], the IC50 was 0.021 µM on human CSNK1A1 and 0.035 µM on human CSNK1D.
On to `CN1CC(CC2CC2)c2[nH]c(-c3ccnc(NC(=O)Cc4ccc(F)cc4)c3)c(Nc3cscn3)c2C1=O` (single isomer, unassigned) [Example 50, N-{4-[(7R or S)-7-(cyclopropylmethyl)-5-methyl-4-oxo-3-(1,3-thiazol-4-ylamino)-4,5,6,7-tetrahydro-1H-pyrrolo[3,2-c]pyridin-2-yl]pyridin-2-yl}-2-(4-fluorophenyl)acetamide], for which the IC50 at human CSNK1A1 was found to be 0.0051 µM; on human CSNK1D, 0.0099 µM.
As for `CN1CC(CC2CC2)c2[nH]c(-c3ccnc(NC(=O)Cc4ccc(F)cc4)c3)c(Nc3ccccc3)c2C1=O` (single isomer, unassigned) [Example 20, N-{4-[3-anilino-7-(cyclopropylmethyl)-5-methyl-4-oxo-4,5,6,7-tetrahydro-1H-pyrrolo[3,2-c]pyridin-2-yl]pyridin-2-yl}-2-(4-fluorophenyl)acetamide], the IC50 was found to be 0.017 µM on human CSNK1A1 and 0.029 µM on human CSNK1D.
For `CN1CC(CC(F)(F)F)c2[nH]c(-c3ccnc(NC(=O)Cc4ccc(F)cc4)c3)c(Nc3cscn3)c2C1=O` (single isomer, unassigned) [Example 48, 2-(4-fluorophenyl)-N-{4-[(7R or S)-5-methyl-4-oxo-3-(1,3-thiazol-4-ylamino)-7-(2,2,2-trifluoroethyl)-4,5,6,7-tetrahydro-1H-pyrrolo[3,2-c]pyridin-2-yl]pyridin-2-yl}acetamide], in that order: 0.0075 µM and 0.032 µM.
Consider `Cc1cc2[nH]c(-c3ccnc(NC(=O)C(CC(F)F)c4ccc(F)cc4)c3)c(Nc3ccccc3F)c2c(=O)n1C` (racemic) [Example 31, 4,4-difluoro-N-{4-[3-(2-fluoroanilino)-5,6-dimethyl-4-oxo-4,5-dihydro-1H-pyrrolo[3,2-c]pyridin-2-yl]pyridin-2-yl}-2-(4-fluorophenyl)butanamide], for which the IC50 at human CSNK1A1 stood at 0.031 µM; at human CSNK1D, 0.032 µM.
`CCC1CNC(=O)c2c1[nH]c(-c1ccnc(NC(=O)C(CC(F)F)c3ccc(F)cc3)c1)c2Nc1ccccc1` (stereo not drawn) [Example 4, N-{4-[3-anilino-7-ethyl-4-oxo-4,5,6,7-tetrahydro-1H-pyrrolo[3,2-c]pyridin-2-yl]pyridin-2-yl}-4,4-difluoro-2-(4-fluorophenyl)butanamide]: the IC50 at human CSNK1A1 and at human CSNK1D was 0.016 µM throughout.
For the compound `Cc1cn(C)c(=O)c2c(Nc3ccccc3)c(-c3ccnc(NC(=O)C(C)c4ccc(F)cc4)c3)[nH]c12` (single isomer, unassigned) [Example 41, N-[4-(3-anilino-5,7-dimethyl-4-oxo-4,5-dihydro-1H-pyrrolo[3,2-c]pyridin-2-yl)pyridin-2-yl]-2-(4-fluorophenyl)propanamide], the IC50 on human CSNK1A1 is 0.1 µM; on human CSNK1D it was 0.088 µM.
For `CCc1c[nH]c(=O)c2c(Nc3ccccc3)c(-c3ccnc(NC(=O)C(CC(F)F)c4ccc(F)cc4)c3)[nH]c12` (racemic) [Example 5, N-[4-(3-anilino-7-ethyl-4-oxo-4,5-dihydro-1H-pyrrolo[3,2-c]pyridin-2-yl)pyridin-2-yl]-4,4-difluoro-2-(4-fluorophenyl)butanamide], the figures for the IC50 at human CSNK1A1 and at human CSNK1D were 0.0072 µM and 0.0064 µM, respectively.
`CC1CN(C)C(=O)c2c1[nH]c(-c1ccnc(NC(=O)Cc3ccc(F)cc3)c1)c2Nc1ccccc1` (single isomer, unassigned; (-)) [Example 7, (−)-N-{4-[3-anilino-5,7-dimethyl-4-oxo-4,5,6,7-tetrahydro-1H-pyrrolo[3,2-c]pyridin-2-yl]pyridin-2-yl}-2-(4-fluorophenyl)acetamide]: the IC50 on human CSNK1A1 is 0.0055 µM; at human CSNK1D it was 0.011 µM.

For the origin of these results see patent US20230365554A1, “SUBSTITUTED PYRROLO-PYRIDINONE DERIVATIVES AND THERAPEUTIC USES THEREOF” (The Broad Institute, Inc., priority 2020, published 2023).
